Assay [1] deals with T1, human NAAA (Homo sapiens, UniProt Q02083).
T1 construct: expressed in transfected cells; host or cells: HEK-293 (stably transfected, G418 selection); enzyme-enriched lysate
T1 sequence (Q02083 126-359 limits assumed): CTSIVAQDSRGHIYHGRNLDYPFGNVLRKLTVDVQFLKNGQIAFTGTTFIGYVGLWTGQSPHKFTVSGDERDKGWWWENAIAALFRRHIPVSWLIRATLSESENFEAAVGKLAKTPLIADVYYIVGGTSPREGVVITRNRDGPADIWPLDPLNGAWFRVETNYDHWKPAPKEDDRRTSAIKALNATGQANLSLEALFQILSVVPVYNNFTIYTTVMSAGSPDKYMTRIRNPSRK
T1 sequence (Q02083 29-125 limits assumed): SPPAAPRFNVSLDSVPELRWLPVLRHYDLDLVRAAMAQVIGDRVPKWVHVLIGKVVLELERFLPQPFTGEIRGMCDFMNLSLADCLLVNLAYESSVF
As to the kind of experiment: In vitro human NAAA fluorogenic assay. As to conditions: enzyme-enriched lysate of HEK-293 cells stably transfected with human NAAA. It is filed as biochemical. As to the method: Human recombinant proteins were obtained from HEK-293 stable overexpressing NAAA cell lines. Cells were grown in Dulbecco's modified Eagle medium (DMEM) containing 10% FBS, 1% penicillin/streptomycin, 1% glutamine and 500 μg/mL G418. To obtain membrane preparation cells were scraped off with cold phosphate-buffered saline (PBS) and collected by centrifugation (300×g, 7 min, 4° C.). Cell pellet were stored at −80° C. until protein preparation.
In Vitro Human NAAA Assay
Preparation of Enzyme-Enriched Lysate (h-NAAA).
HEK-293 cells stably transfected with the human NAAA coding sequences were used as enzyme source. Cell pellets were suspended in 20 mM Tris HCl (pH 7.4) with 0.32 M sucrose, sonicated and centrifuged at 800×g for 30 min at 4° C. Supernatants were then ultracentrifuged at 12,000×g for 30 min at 4° C. Pellets were re-suspended in PBS buffer (pH 7.4) and subjected to three freeze-thaw cycles at −80° C. The suspension was finally ultracentrifuged at 105,000×g for 1 h at 4° C., supematants were collected, protein concentration was measured and samples aliquoted and stored at −80° C. until use.
The results are summarized in Table 3 as follows, wherein +: IC50>2 μM; ++: 1.0 μM<IC50<2 μM; +++: IC50<1 μM: […]

Assay [2] has as its system Neuro2A cells. The assay is described as follows: Inhibition of ROS production in Neuro2A cells (H2O2-induced, DCFH-DA fluorescence). It is filed as cell-based. As to conditions: ROS induced with 0.2 mM H2O2; for Inhibition of ROS production in neuro 2A cells, 5 μM (inhibition): compound 5 μM; for Inhibition of ROS production in neuro 2A cells, 10 μM (inhibition): compound 10 μM. The protocol:
The experiments carried out to evaluate the inhibition of ROS production using the compounds of the invention were based on the method reported by Danli W. and Patricia Yotnda in Production and Detection of Reactive Oxygen Species (ROS) in Cancers, J. Vis Exp. 2011; (57):3357.
Cultured brain Neuroblastoma2A (Neuro2A) were used.
15.000 Cells were plated in a 96 well plate with black walls and transparent flat bottom in 100 μL of DMEM complete medium (including 10% fetal bovine serum, […] L-Glutamine) containing compounds at indicated concentrations or 0.5% dimethylsulfoxide (DMSO), and kept overnight at 37° C. to allow them to attach to the plate. The following day the culture medium was removed, cells were washed with 100 μl of Phosphate Buffer Saline, pH 7.4 (PBS) and loaded with 100 μL of PBS containing 10 μM of dichloro-dihydro-fluorescein diacetate (DCFH-DA) and compounds at the indicated concentrations (or DMSO 0.5%) for additional 45 min at 37° C. DCFH-DA was prepared as a 20 mM stock in (DMSO) and kept in the dark at 4° C.
ROS production was induced by exposure with 0.2 mM H2O2 dissolved in 100 μl of complete DMEM medium without phenol red. Fluorescence intensity was measured at an […] wavelengths of 485/535 nm and ROS production was monitored for 2 h, at 37° C.

[3] abbreviates: read-out: Activity h-NAAA Fluorogenic assay.

Read-outs that look alike come from different tables or passages of the source.

As to `CCCCc1ccc(OC2CC3CCC(C2)N3S(=O)(=O)c2c(C)n[nH]c2C)cc1` [Example 03, (1R,3s,5S)-3-(4-Butylphenoxy)-8-[(3,5-dimethyl-1H-pyrazol-4-yl)sulfonyl]-8-azabicyclo[3.2.1]octane], in assay [1] (Activity h-NAAA Fluorogenic assay), the IC50 is above 2 µM. In addition, in assay [2], the “Inhibition of ROS production in neuro 2A cells, 5 μM (inhibition)” value stood at 39% and the “Inhibition of ROS production in neuro 2A cells, 10 μM (inhibition)” value is reported as 136%.

For the compound `Cc1n[nH]c(C)c1S(=O)(=O)N1C2CCC1CC(Oc1ccc(C#N)cc1)C2` [Example 08, (1R,3r,5S)-3-(4-Cyanophenoxy)-8-[(3,5-dimethyl-1H-pyrazol-4-yl)sulfonyl]-8-azabicyclo[3.2.1]octane], the IC50 in assay [1] (setting [3]) was below 1 µM. Moreover, in assay [2], the “Inhibition of ROS production in neuro 2A cells, 5 μM (inhibition)” value was 0% and the “Inhibition of ROS production in neuro 2A cells, 10 μM (inhibition)” value is 77%.

Consider `Cc1n[nH]c(C)c1S(=O)(=O)N1C2CCC1CC(Oc1ccc(CO)cc1)C2` [Example 31, (1R,3r,5S)-3-(4-Hydroxymethyl-phenoxy)-8-[(3,5-dimethyl-1H-pyrazol-4-yl)sulfonyl]-8-azabicyclo[3.2.1]octane], for which the IC50 in assay [1] (setting [3]) is below 1 µM.

Turning to `CCN(CC)Cc1ccc(OC2CC3CCC(C2)N3S(=O)(=O)c2c(C)n[nH]c2C)cc1` [Example 32, (1R,3r,5S)-3-[4-Diethylaminomethyl-phenoxy]-8-[(3,5-dimethyl-1H-pyrazol-4-yl)sulfonyl]-8-azabicyclo[3.2.1]octane], the IC50 in assay [1] (setting [3]) was above 2 µM.

On to `Cc1n[nH]c(C)c1S(=O)(=O)N1C2CCC1CC(Oc1ccc(CCC(C)C)cc1)C2` [Example 33, (1R,3r,5S)-3-[4-Isopentyl-phenoxy]-8-[(3,5-dimethyl-1H-pyrazol-4-yl)sulfonyl]-8-azabicyclo[3.2.1]octane], for which, in assay [1] (setting [3]), the IC50 is below 1 µM.

With `Cc1n[nH]c(C)c1S(=O)(=O)N1C2CCC1CC(Oc1cnc3ccccc3n1)C2` [Example 34, (1R,3r,5S)-8-[(3,5-Dimethyl-1H-pyrazol-4-yl)sulfonyl]-3-(2-quinoxalyloxy)-8-azabicyclo[3.2.1]octane], the IC50 in assay [1] (setting [3]) was above 2 µM.

For the compound `CCOCc1ccc(OC2CC3CCC(C2)N3S(=O)(=O)c2c(C)n[nH]c2C)cc1` [Example 35, (1R,3r,5S)-3-(4-Ethoxymethyl-phenoxy)-8-[(3,5-dimethyl-1H-pyrazol-4-yl)sulfonyl]-8-azabicyclo[3.2.1]octane], in assay [1] (setting [3]), the IC50 is below 1 µM.

Consider `Cc1cnc(OC2CC3CCC(C2)N3S(=O)(=O)c2c(C)n[nH]c2C)cn1` [Example 36, (1R,3r,5S)-8-[(3,5-Dimethyl-1H-pyrazol-4-yl)sulfonyl]-3-(5-methylpyrazin-2-yl)oxy-8-azabicyclo[3.2.1]octane], for which the IC50 in assay [1] (setting [3]) was below 1 µM.

As to `Cc1n[nH]c(C)c1S(=O)(=O)N1C2CCC1CC(Oc1cccnn1)C2` [Example 37, (1R,3r,5S)-8-[(3,5-Dimethyl-1H-pyrazol-4-yl)sulfonyl]-3-pyridazin-3-yloxy-8-azabicyclo[3.2.1]octane], the IC50 in assay [1] (setting [3]) was above 2 µM.

On to `Cc1ccc2oc(OC3CC4CCC(C3)N4S(=O)(=O)c3c(C)n[nH]c3C)nc2c1` [Example 38, (1R,3r,5S)-8-[(3,5-Dimethyl-1H-pyrazol-4-yl)sulfonyl]-3-(2-(5-methyl)-benzoxazoloxy)-8-azabicyclo[3.2.1]octane], for which the IC50 in assay [1] (setting [3]) was below 1 µM.

Regarding `Cc1n[nH]c(C)c1S(=O)(=O)N1C2CCC1CC(Oc1ccc(Cl)cc1)C2` [Example 39, (1R,3r,5S)-3-(4-Chloro-phenoxy)-8-[(3,5-dimethyl-1H-pyrazol-4-yl)sulfonyl]-8-azabicyclo[3.2.1]octane], in assay [1] (setting [3]), the IC50 is below 1 µM.

Turning to `CCOCc1cnc(OC2CC3CCC(C2)N3S(=O)(=O)c2c(C)n[nH]c2C)cn1` [Example 41, (1R,3r,5S)-8-[(3,5-Dimethyl-1H-pyrazol-4-yl)sulfonyl]-3-[5-(ethoxymethyl)pyrazin-2-yl]oxy-8-azabicyclo[3.2.1]octane], the IC50 in assay [1] (setting [3]) was below 1 µM.

Turning to `Cc1n[nH]c(C)c1S(=O)(=O)N1C2CCC1CC(Oc1ccc(F)cc1)C2` [Example 42, (1R,3r,5S)-3-(4-Fluoro-phenoxy)-8-[(3,5-dimethyl-1H-pyrazol-4-yl)sulfonyl]-8-azabicyclo[3.2.1]octane], in assay [1] (setting [3]), the IC50 was below 1 µM.

`Cc1n[nH]c(C)c1S(=O)(=O)N1[C@@H]2CC[C@H]1C[C@H](Oc1cccnn1)C2` [Example 43, (1R,3s,5S)-8-[(3,5-Dimethyl-1H-pyrazol-4-yl)sulfonyl]-3-pyridazin-3-yloxy-8-azabicyclo[3.2.1]octane]: in assay [1] (setting [3]), the IC50 was above 2 µM.

With `Cc1n[nH]c(C)c1S(=O)(=O)N1C2CCCC1CC(Oc1cnccn1)C2` [Example 44, (1R,3r,5S)-9-[(3,5-Dimethyl-1H-pyrazol-4-yl)sulfonyl]-3-(pyrazin-2-yloxy)-9-azabicyclo[3.3.1]nonane], in assay [1] (setting [3]), the IC50 is below 1 µM.

For `Cc1n[nH]c(C)c1S(=O)(=O)N1C2CCCC1CC(Oc1cnccn1)C2` [Example 45, (1R,3s,5S)-9-[(3,5-Dimethyl-1H-pyrazol-4-yl)sulfonyl]-3-(pyrazin-2-yloxy)-9-azabicyclo[3.3.1]nonane], the IC50 in assay [1] (setting [3]) is above 2 µM.

Take `Cc1n[nH]c(C)c1S(=O)(=O)N1C2COCC1CC(Oc1cnccn1)C2` [Example 46, (1R,3s,5S)-9-[(3,5-Dimethyl-1H-pyrazol-4-yl)sulfonyl]-7-pyrazin-2-yloxy-3-oxa-9-azabicyclo[3.3.1]nonane]: in assay [1] (setting [3]), the IC50 was above 2 µM.

Consider `Cc1n[nH]c(C)c1S(=O)(=O)N1C2COCC1CC(Oc1cnccn1)C2` [Example 47, (1R,3r,5S)-9-[(3,5-Dimethyl-1H-pyrazol-4-yl)sulfonyl]-7-pyrazin-2-yloxy-3-oxa-9-azabicyclo[3.3.1]nonane], for which the IC50 in assay [1] (setting [3]) is above 2 µM.

As for `Cc1n[nH]c(C)c1S(=O)(=O)N1C[C@H]2COC[C@@H](C1)[C@H]2Oc1cnccn1` [Example 48, (1R,5S,9r)-7-((3,5-Dimethyl-1H-pyrazol-4-yl)sulfonyl)-9-(pyrazin-2-yloxy)-3-oxa-7-azabicyclo[3.3.1]nonane], in assay [1] (setting [3]), the IC50 is above 2 µM.

On to `Cc1n[nH]c(C)c1S(=O)(=O)N1C[C@H]2COC[C@@H](C1)C2Oc1cnccn1` (stereo partly drawn) [Example 49, (1R,5S,9s)-7-((3,5-Dimethyl-1H-pyrazol-4-yl)sulfonyl)-9-(pyrazin-2-yloxy)-3-oxa-7-azabicyclo[3.3.1]nonane], for which the IC50 in assay [1] (setting [3]) is above 2 µM.

For `Cc1n[nH]c(C)c1S(=O)(=O)N1C[C@H]2CC[C@@H](C1)C2Oc1cnccn1` (stereo partly drawn) [Example 50, (1R,5S,8r)-3-((3,5-Dimethyl-1H-pyrazol-4-yl)sulfonyl)-8-(pyrazin-2-yloxy)-3-azabicyclo[3.2.1]octane], the IC50 in assay [1] (setting [3]) is above 2 µM.

Take `Cc1ccc(OC2CC3CCC(C2)N3S(=O)(=O)c2c(C)n[nH]c2C)nn1` [Example 53, (1R,3r,5S)-8-[(3,5-Dimethyl-1H-pyrazol-4-yl)sulfonyl]-3-(6-methylpyridazin-3-yl)oxy-8-azabicyclo[3.2.1]octane]: the IC50 in assay [1] (setting [3]) was above 2 µM.

Regarding `O=C(/C=C/c1ccc(O)c2c1[C@H](C(=O)O[C@H](Cc1ccc(O)c(O)c1)C(=O)O)[C@@H](c1ccc(O)c(O)c1)O2)O[C@H](Cc1ccc(O)c(O)c1)C(=O)O` [Salvianolic Acid B, Salvianolic acid B, reference compound], in assay [2] (reference compound 100 μM), the “Inhibition of ROS production in neuro 2A cells (inhibition), reference at 100 μM” value turned out to be 100%.

Consider “(1R,3r,5S)-3-(4-Hexylphenoxy)-8-[(3,5-dimethyl-1H-pyrazol-4-yl)sulfonyl]-8-azabicyclo[3.2.1]octane [Example 19]”, for which the IC50 in assay [1] (setting [3]) is below 1 µM.

The values are drawn from patent US10865194B2, “Therapeutically active bicyclic-sulphonamides and pharmaceutical compositions” (FONDAZIONE ISTITUTO ITALIANO DI TECNOLOGIA, priority 2017, dated 2020).
